Experimental data published in patent publication US5298494A, “Monosaccharides having anti-proliferation and anti-inflammatory activity, compositions and uses thereof” (Greenwich Pharmaceuticals Incorporated, priority 1993, dated 1994).
Several values for one entry are separate records, joined by “and”; a condition that tells them apart may be missing. Equal values may be shown once. Read-outs that look alike come from different tables or passages of the source.

Test system: T lymphocytes (normal mouse spleen cells) stimulated with ConA
Experiment: Mouse Spleen Cell ConA Blastogenesis Assay
Type: cell-based, mouse (C57Bl/6)
Conditions: for inhibition at 0.01 µg/mL / inhibition at 0.001 µg/mL / inhibition at 0.1 µg/mL / inhibition at 1 µg/mL / inhibition at 2.5 µg/mL / inhibition at 10 µg/mL / inhibition at 25 µg/mL / inhibition at 100 µg/mL / inhibition at 300 µg/mL / inhibition at 750 µg/mL: Mus musculus, T-lymphocyte; for inhibition at 0.01 µg/mL: 0.01 ug/ml, read-out: % Change from Control (Table II); for inhibition at 0.001 µg/mL / inhibition at 0.1 µg/mL / inhibition at 1 µg/mL / inhibition at 2.5 µg/mL / inhibition at 10 µg/mL / inhibition at 25 µg/mL / inhibition at 100 µg/mL / inhibition at 300 µg/mL / inhibition at 750 µg/mL: read-out: % change from control, ConA blastogenic response; for inhibition at 300 µg/mL: compound 300 ug/ml; for inhibition at 750 µg/mL: compound 750 ug/ml
Source text: It is well known that several plant lectins, when cultured in vitro with lymphocytes, stimulate cellular activation and proliferation. Concanavolin, (ConA) selectively stimulates the blastogenic response of T lymphocytes.
Six to 8 week old male C57Bl/6 mice were purchased from Harlan Sprague Dawley (Indianapolis, Ind.).
Spleens were removed and were homogenized to obtain a single cell suspension. Erythrocytes were lysed by hypotonic shock. Upon determination of the viability and concentration of the lymphoid cells, they were adjusted to 4×10^6 cells/ml in culture medium (RPMI-1640) supplemented with 10% fetal bovine serum; 100 ug/ml streptomycin; 100 U/ml penicillin, 0.2M hepes buffer; 5×10^-5 M 2-mercaptoethanol and 2 mM glutamine). seeded into microtiter plate wells at 2×10^5 cells/0.050 ml/well. To these cultures were added various doses of experimental compounds and ConA at a final concentration of 4 or 1 ug/ml. Control cultures consisted of cells, ConA and culture medium containing the vehicle, DMSO only. […] For the testing of the methyl 1,3-O-isopropylidene-6-O-n-heptyl-α-D-fructofuranoside compound indomethacin and NDGA were used as controls. All cultures were run in triplicate.
Solutions of compounds of the invention in DMSO were prepared and dilutions were made in culture medium. Assay concentrations were either: 1, 2.5, 10, 25, 100, 300 and 750 ug/ml or 0.001, 0.01, 0.1, 1, 2.5, 10, 25 and 100 ug/ml.
Cultures were incubated for 3 days at 37° C. in a humidified atmosphere of 5% of CO2 in air. For the last 18 hours of culture, 1 uCi of ^3 H-thymidine was also incubated in each well. The cells were precipitated by a multi-channel harvester. The amount of ^3 H-thymidine incorporated by the cultures, as a measure of cell proliferation, was measured in a liquid scintillation counter. The amount of radioactive incorporation is proportional to the amount of cellular proliferation in individual wells. The students T test was used to determine the significance of the difference between experimental and control values.

[1] = ConA 1 ug/ml, compound 0.001 ug/ml
[2] = ConA 1 ug/ml, compound 0.1 ug/ml
[3] = ConA 1 ug/ml, compound 2.5 ug/ml
[4] = ConA 1 ug/ml, compound 10 ug/ml
[5] = ConA 1 ug/ml, compound 25 ug/ml
[6] = ConA 1 ug/ml, compound 100 ug/ml
[7] = ConA 4 ug/ml, compound 0.001 ug/ml
[8] = ConA 4 ug/ml, compound 0.1 ug/ml
[9] = ConA 4 ug/ml, compound 2.5 ug/ml
[10] = ConA 4 ug/ml, compound 10 ug/ml
[11] = ConA 4 ug/ml, compound 25 ug/ml
[12] = ConA 4 ug/ml, compound 100 ug/ml

SMILES: Cc1cn([C@H]2C[C@H](N=[N+]=[N-])[C@@H](CO)O2)c(=O)[nH]c1=O [AZT, reference compound]
- Blastogenic response of normal spleen cells to Con-A [1]: 47.1 ± 4.5 × 10^-3 cpm
- Blastogenic response of normal spleen cells to Con-A (ConA 1 ug/ml, compound 0.01 ug/ml): 36.7 ± 3.1 × 10^-3 cpm
- Blastogenic response of normal spleen cells to Con-A [2]: 9.1 ± 5.8 × 10^-3 cpm
- % change from control, ConA blastogenic response (ConA 1 ug/ml, compound 1 ug/ml): -99% and -96%
- Blastogenic response of normal spleen cells to Con-A (ConA 1 ug/ml, compound 1 ug/ml): 1.7 ± 0.1 × 10^-3 cpm
- % change from control, ConA blastogenic response [3]: -98%
- Blastogenic response of normal spleen cells to Con-A [3]: 0.7 ± 0.3 × 10^-3 cpm
- % change from control, ConA blastogenic response [4]: -100% and -99%
- Blastogenic response of normal spleen cells to Con-A [4]: 0.5 ± 0.1 × 10^-3 cpm
- % change from control, ConA blastogenic response [5]: -100% and -99%
- Blastogenic response of normal spleen cells to Con-A [5]: 0.5 ± 0.2 × 10^-3 cpm
- % change from control, ConA blastogenic response [6]: -100% and -99%
- Blastogenic response of normal spleen cells to Con-A [6]: 0.3 ± 0.0 × 10^-3 cpm
- Blastogenic response of normal spleen cells to Con-A [7]: 163.7 ± 8.0 × 10^-3 cpm
- Blastogenic response of normal spleen cells to Con-A (ConA 4 ug/ml, compound 0.01 ug/ml): 158.1 × 10^-3 cpm
- Blastogenic response of normal spleen cells to Con-A [8]: 24.5 ± 3.0 × 10^-3 cpm
- % change from control, ConA blastogenic response (ConA 4 ug/ml, compound 1 ug/ml): -99% and -97%
- Blastogenic response of normal spleen cells to Con-A (ConA 4 ug/ml, compound 1 ug/ml): 4.0 ± 1.5 × 10^-3 cpm
- % change from control, ConA blastogenic response [9]: -100% and -99%
- Blastogenic response of normal spleen cells to Con-A [9]: 1.9 ± 0.4 × 10^-3 cpm
- % change from control, ConA blastogenic response [10]: -100% and -99%
- Blastogenic response of normal spleen cells to Con-A [10]: 1.4 ± 0.4 × 10^-3 cpm
- Blastogenic response of normal spleen cells to Con-A [11]: 1.3 ± 0.5 × 10^-3 cpm
- % change from control, ConA blastogenic response [12]: -99% and -100%
- Blastogenic response of normal spleen cells to Con-A [12]: 0.6 ± 0.1 × 10^-3 cpm
- inhibition at 0.01 µg/mL (ConA 1 ug/ml): 7%
- inhibition at 0.001 µg/mL [1]: 18%
- inhibition at 0.1 µg/mL [2]: 93%
- inhibition at 1 µg/mL (ConA 1 ug/ml, compound 1 ug/ml): 96%
- inhibition at 2.5 µg/mL [3]: 98%
- inhibition at 10 µg/mL [4]: 99%
- inhibition at 25 µg/mL [5]: 99%
- inhibition at 100 µg/mL [6]: 99%
- inhibition at 0.01 µg/mL (ConA 4 ug/ml): 13%
- inhibition at 0.001 µg/mL [7]: -5%
- inhibition at 0.1 µg/mL [8]: 99%
- inhibition at 1 µg/mL (ConA 4 ug/ml, compound 1 ug/ml): 97%
- inhibition at 2.5 µg/mL [9]: 99%
- inhibition at 10 µg/mL [10]: 99%
- inhibition at 25 µg/mL [11]: 99%
- inhibition at 100 µg/mL [12]: 100%

SMILES: CCCCCCCSC[C@H]1OC(C)(C)O[C@@H]2[C@H]3OC(C)(C)O[C@H]3O[C@@H]21 [IIIn, 1,2:3,5-Di-O-Isopropylidene-6-deoxy-6-thio-n-heptyl-β-D-glucofuranose]
- inhibition at 1 µg/mL (ConA 1 ug/ml, compound 1 ug/ml): 4%
- inhibition at 10 µg/mL [4]: 29%
- inhibition at 25 µg/mL [5]: 27%
- inhibition at 100 µg/mL [6]: 84%
- inhibition at 300 µg/mL (ConA 1 ug/ml): 99%
- inhibition at 750 µg/mL (ConA 1 ug/ml): 99%
- inhibition at 1 µg/mL (ConA 4 ug/ml, compound 1 ug/ml): -1%
- inhibition at 10 µg/mL [10]: 12%
- inhibition at 25 µg/mL [11]: 16%
- inhibition at 100 µg/mL [12]: 76%
- inhibition at 300 µg/mL (ConA 4 ug/ml): 99%
- inhibition at 750 µg/mL (ConA 4 ug/ml): 98%
- strong antiproliferative effect on ConA blastogenic response (concentration not given): greater than -50 % of control
